These results are taken from patent US8552002B2 (Novartis AG, priority 2004, dated 2013).

Broadly, the inhibition is the drop in the measured response relative to a control, in per cent.

Structures are written as SMILES.

Common to all, as to assay type: biochemical
The target of one assay is T1, Tek (Homo sapiens, UniProt Q02763).
T1 construct: amino acids 773-1124 of the cytoplasmic kinase domain of human Tek, N-terminally fused to GST; made in house; host or cells: Sf9 insect cells (baculovirus)
T1 sequence (Q02763 773-1124): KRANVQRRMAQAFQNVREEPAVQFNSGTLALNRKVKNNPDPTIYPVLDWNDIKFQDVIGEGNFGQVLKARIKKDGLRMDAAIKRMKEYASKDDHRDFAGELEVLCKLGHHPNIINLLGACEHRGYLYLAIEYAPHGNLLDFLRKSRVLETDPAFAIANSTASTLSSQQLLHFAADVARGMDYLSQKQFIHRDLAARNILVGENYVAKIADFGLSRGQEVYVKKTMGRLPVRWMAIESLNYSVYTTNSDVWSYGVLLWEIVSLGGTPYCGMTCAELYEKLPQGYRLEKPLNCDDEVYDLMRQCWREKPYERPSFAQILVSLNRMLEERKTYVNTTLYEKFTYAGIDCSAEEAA
Description: Recombinant GST-Tek (Tie-2) tyrosine kinase assay (33P into poly(Glu,Tyr)). As to conditions: Examples 1 to 169. An excerpt:
(Tie-2/Tek): The baculovirus donor vector pFbacG01 was used to generate a recombinant baculovirus that expressed the amino acid region amino acids 773-1124 of the cytoplasmic kinase domain of human Tek, N-terminally fused to GST (Provided by Dr. Marmé, Institute of Molecular Medicine, Freiburg, Germany based on a Research Collaboration). Tek was recloned into the pFbacG01 transfer vector by EcoRI excision and ligation into EcoRI digested pFbacG01 (FBG-Tie2/Tek).
Production of virus: Transfer vectors containing the kinase domains were transfected into the DH10Bac cell line (GIBCO) and plated on selective agar plates. Colonies without insertion of the fusion sequence into the viral genome (carried by the bacteria) are blue. Single white colonies were picked and viral DNA (bacmid) isolated from the bacteria by standard plasmid purification procedures. Sf9 cells or Sf21 cells were then transfected in 25 cm^2 flasks with the viral DNA using Cellfectin reagent.
Determination of small scale protein expression in Sf9 cells: Virus containing media was collected from the transfected cell culture and used for infection to increase its titer. Virus containing media obtained after two rounds of infection was used for large-scale protein expression. For large-scale protein expression 100 cm^2 round tissue culture plates were seeded with 5×10^7 cells/plate and infected with 1 mL of virus-containing media (approx. 5 MOIs). After 3 days the cells were scraped off the plate and centrifuged at 500 rpm for 5 min. Cell pellets from 10-20, 100 cm^2 plates, were resuspended in 50 mL of ice-cold lysis buffer (25 mMTris-HCl, pH7.5, 2 mMEDTA, 1% NP-40, 1 mM DTT, 1 mMP MSF). The cells were stirred on ice for 15 min and then centrifuged at 5000 rpms for 20 min.
Purification of GST-tagged proteins: The centrifuged cell lysate was loaded onto a 2 mL glutathione-sepharose column and washed three times with 10 mL of 25 mM Tris-HCl, pH 7.5, 2 mM EDTA, 1 mM DTT, 200 mM NaCl. The GST-tagged proteins were then eluted by 10 applications (1 mL each) of 25 mM Tris-HCl, pH 7.5, 10 mM reduced-glutathione, 100 mM NaCl, 1 mM DTT, 10% Glycerol and stored at −70° C.
Measure of enzyme activity: Tyrosine protein kinase assays with either purified GST-Ret, GST-Tek or GST-FGFR-3-K650E were carried out in a final volume of 30 μL with final concentrations of the following components: Ret included 15 ng of GST-Ret, 20 mM Tris-HCl, pH 7.5, 1 mM MnCl2, 10 mM MgCl2, 1 mM DTT, 3 μg/mL poly(Glu,Tyr) 4:1, 1% DMSO and 2.0 μM ATP (γ-[^33P]-ATP 0.1 μCi). Tek included 150 ng of GST-Tek, 20 mM Tris-HCl, pH 7.5, 3 mM MnCl2, 3 mM MgCl2, 1 mM DTT, 0.01 mM Na3VO4, 250 μg/mL PEG 20'000, 10 μg/mL poly(Glu,Tyr) 4:1, 1% DMSO and 4.0 μM ATP (γ-[^33P]-ATP 0.1 μCi). FGFR-3-K650E included 10 ng of GST-FGFR-3-K650E, 20 mM Tris-HCl, pH 7.5, 3 mM MnCl2, 3 mM MgCl2, 1 mM DTT, […], 10 μg/mL poly(Glu,Tyr) 4:1, 1% DMSO and 4.0 μM ATP (γ-[^33P]-ATP 0.1 μCi).The activity was assayed in the presence or absence of inhibitors, by measuring the incorporation of ^33P from [γ^33P] ATP into poly(Glu,Tyr) 4:1. The assay was carried out in 96-well plates at ambient temperature for 30 min under conditions described below and terminated by the addition of 50 μL of 125 mM EDTA. Subsequently, 60 μL of the reaction mixture were transferred onto Immobilon-PVDF membrane (Millipore) previously soaked for 5 min with methanol, rinsed with water, then soaked for 5 min with 0.5% H3PO4 and mounted on vacuum manifold with disconnected vacuum source. After spotting all samples, vacuum was connected and each well rinsed with 200 μL 0.5% H3PO4. Membranes were removed and washed 4× on a shaker with 1.0% H3PO4, once with ethanol. Membranes were counted after drying at ambient temperature, mounting in Packard TopCount 96-well frame, and addition of 10 μL/well of Microscint™ (Packard). […]

The target of a further assay is T2, KDR (Homo sapiens, UniProt P35968).
T2 construct: expressed in transfected cells; host or cells: CHO cells
T2 sequence (P35968 20-1356): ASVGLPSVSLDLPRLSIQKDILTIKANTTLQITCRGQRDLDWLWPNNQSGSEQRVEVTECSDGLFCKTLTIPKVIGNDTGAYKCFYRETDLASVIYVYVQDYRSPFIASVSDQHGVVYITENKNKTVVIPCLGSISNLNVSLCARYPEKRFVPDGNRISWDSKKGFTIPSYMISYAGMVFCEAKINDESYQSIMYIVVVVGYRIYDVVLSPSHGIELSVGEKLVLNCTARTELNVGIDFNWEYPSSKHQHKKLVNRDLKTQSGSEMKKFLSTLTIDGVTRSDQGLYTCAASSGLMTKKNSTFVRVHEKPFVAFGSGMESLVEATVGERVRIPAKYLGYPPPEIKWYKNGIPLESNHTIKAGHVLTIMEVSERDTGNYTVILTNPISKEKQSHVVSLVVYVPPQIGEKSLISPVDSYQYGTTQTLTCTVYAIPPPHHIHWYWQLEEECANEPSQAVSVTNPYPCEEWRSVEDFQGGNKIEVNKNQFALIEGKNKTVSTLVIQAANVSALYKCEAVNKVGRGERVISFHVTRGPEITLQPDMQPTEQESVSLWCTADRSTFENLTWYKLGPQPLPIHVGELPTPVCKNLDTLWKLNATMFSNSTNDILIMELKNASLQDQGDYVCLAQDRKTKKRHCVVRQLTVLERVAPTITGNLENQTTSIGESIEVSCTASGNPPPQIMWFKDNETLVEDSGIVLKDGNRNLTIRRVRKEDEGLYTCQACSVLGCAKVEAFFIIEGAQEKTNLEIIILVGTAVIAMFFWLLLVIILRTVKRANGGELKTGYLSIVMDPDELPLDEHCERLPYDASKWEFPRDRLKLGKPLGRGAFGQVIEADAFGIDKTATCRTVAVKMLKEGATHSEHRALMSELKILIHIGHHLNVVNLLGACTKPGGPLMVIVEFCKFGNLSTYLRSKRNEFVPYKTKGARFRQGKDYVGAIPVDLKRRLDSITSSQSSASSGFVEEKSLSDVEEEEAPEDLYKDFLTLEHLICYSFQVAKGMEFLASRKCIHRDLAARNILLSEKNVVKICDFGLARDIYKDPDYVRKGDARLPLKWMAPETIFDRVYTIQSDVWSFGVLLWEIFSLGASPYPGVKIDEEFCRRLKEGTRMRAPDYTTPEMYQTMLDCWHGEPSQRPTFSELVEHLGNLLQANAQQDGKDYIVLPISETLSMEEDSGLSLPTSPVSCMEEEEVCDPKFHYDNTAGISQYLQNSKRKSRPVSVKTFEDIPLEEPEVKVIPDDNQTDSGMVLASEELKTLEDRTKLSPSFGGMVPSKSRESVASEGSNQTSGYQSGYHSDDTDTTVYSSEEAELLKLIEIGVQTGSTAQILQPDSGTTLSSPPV
As to the kind of experiment: Inhibitory activity against KDR (VEGF-R2), in vitro data of Examples 170 and 207. As to conditions: 10 μM; Examples 1 to 169; read-out: KDR inhibition at 10 μM. The method, then:
(Controls comprise medium without test compounds). After two hours of incubation at 37° C., recombinant VEGF is added; the final VEGF concentration is 20 ng/ml. After a further five minutes incubation at 37° C., the cells are washed twice with ice-cold PBS (phosphate-buffered saline) and immediately lysed in 100 μl lysis buffer per well. The lysates are then centrifuged to remove the cell nuclei, and the protein concentrations of the supernatants are determined using a commercial protein assay (BIORAD). The lysates can then either be immediately used or, if necessary, stored at −20° C. […] The plates are then washed and the remaining free protein-binding sites are saturated with 3% TopBlock® (Juro, Cat. # TB232010) in phosphate buffered saline with Tween 20® (polyoxyethylen(20)sorbitane monolaurate, ICI/Uniquema) (PBST). The cell lysates (20 μg protein per well) are then incubated in these plates overnight at 4° C. together with an antiphosphotyrosine antibody coupled with alkaline phosphatase (PY20:AP from Zymed). […] The luminescence is measured in a Packard Top Count Microplate Scintillation Counter.

The target in another assay is T3, FGFR3 (K650E) (Homo sapiens, UniProt P22607, K650E).
T3 construct: amino acids 411-806 of the cytoplasmic domain of human FGFR-3, N-terminally fused to GST; made in house; host or cells: Sf9 insect cells (baculovirus)
T3 sequence (P22607 411-806 K650E): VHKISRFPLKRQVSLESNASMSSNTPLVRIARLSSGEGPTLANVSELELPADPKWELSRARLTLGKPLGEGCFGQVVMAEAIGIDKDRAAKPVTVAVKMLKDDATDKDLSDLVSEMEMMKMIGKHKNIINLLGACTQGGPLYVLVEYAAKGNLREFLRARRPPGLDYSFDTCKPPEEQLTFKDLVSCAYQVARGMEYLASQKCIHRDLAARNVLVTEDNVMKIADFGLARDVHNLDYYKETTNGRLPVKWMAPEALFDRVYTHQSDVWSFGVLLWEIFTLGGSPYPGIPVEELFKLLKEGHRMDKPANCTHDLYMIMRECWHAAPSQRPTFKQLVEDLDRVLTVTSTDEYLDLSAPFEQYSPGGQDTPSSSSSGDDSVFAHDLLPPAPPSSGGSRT
Description: Recombinant GST-FGFR-3-K650E tyrosine kinase assay (33P into poly(Glu,Tyr)). As to conditions: 10 μM; Examples 1 to 169; read-out: FGFR3 (K650E) inhibition at 10 μM.

Regarding `COc1cc(OC)c(Cl)c(NC(=O)N(C)c2cc(Nc3cccc(N4CCN(C)CC4)c3)ncn2)c1Cl` [Example 3, 3-(2,6-Dichloro-3,5-dimethoxy-phenyl)-1-methyl-1-{6-[3-(4-methyl-piperazin-1-yl)-phenylamino]-pyrimidin-4-yl}-urea], the inhibition at 10 µM lay in the range of 12 to 100% on Tek and 67 to 100% at KDR.

With `Cc1cccc(Cl)c1NC(=O)Nc1cc(Nc2ccc(N3CCN(C)CC3)cc2)ncn1` [Example 6, 1-(2-Chloro-6-methyl-Phenyl)-3-{6-[4-(4-methyl-piperazin-1-yl)-phenyl-amino]-pyrimidin-4-yl}-urea], the inhibition at 10 µM on Tek was in the range of 12 to 100%; at KDR, 67 to 100%; at FGFR3 (K650E), 27 to 100%.

Turning to `Cc1cccc(Cl)c1NC(=O)Nc1cc(Nc2cccc(N3CCN(C)CC3)c2)ncn1` [Example 7, 1-(2-Chloro-6-methyl-phenyl)-3-{6-[3-(4-methyl-piperazin-1-yl)-phenyl-amino]-pyrimidin-4-yl}-urea], the results for the inhibition at 10 µM at Tek, at KDR and at FGFR3 (K650E) were 12 to 100%, 67 to 100% and 27 to 100%, respectively.

As for `COc1cccc(NC(=O)Nc2cc(Nc3ccc(N4CCN(C)CC4)cc3)ncn2)c1` [Example 8, 1-(3-Methoxy-phenyl)-3-{6-[4-(4-methyl-piperazin-1-yl)-phenylamino]-py-rimidin-4-yl}-urea], the inhibition at 10 µM on Tek is 12 to 100%; on KDR it was 67 to 100%; at FGFR3 (K650E), 27 to 100%.

`COc1cccc(NC(=O)Nc2cc(Nc3cccc(N4CCN(C)CC4)c3)ncn2)c1` [Example 9, 1-(3-Methoxy-phenyl)-3-{6-[3-(4-methyl-piperazin-1-yl)-phenylamino]-py-rimidin-4-yl}-urea]: the inhibition at 10 µM on Tek lay within 12 to 100%; on KDR it was 67 to 100%; at FGFR3 (K650E) it was 27 to 100%.

As for `CN1CCN(c2ccc(Nc3cc(NC(=O)Nc4cc(Cl)cc(Cl)c4)ncn3)cc2)CC1` [Example 10, 1-(3,5-Dichloro-phenyl)-3-{6-[4-(4-methyl-piperazin-1-yl)-phenylamino]-pyrimidin-4-yl}-urea], the figures for the inhibition at 10 µM at Tek, at KDR and on FGFR3 (K650E) were 12 to 100%, 67 to 100% and 27 to 100%, respectively.

Consider `CN1CCN(c2cccc(Nc3cc(NC(=O)Nc4cc(Cl)cc(Cl)c4)ncn3)c2)CC1` [Example 11, 1-(3,5-Dichloro-phenyl)-3-{6-[3-(4-methyl-piperazin-1-yl)-phenylamino]-pyrimidin-4-yl}-urea], for which the inhibition at 10 µM on Tek lay within 12 to 100%; at KDR, 67 to 100%; at FGFR3 (K650E), 27 to 100%.

Take `COc1ccc(Cl)c(NC(=O)Nc2cc(Nc3ccc(N4CCN(C)CC4)cc3)ncn2)c1` [Example 28, 1-(2-Chloro-5-methoxy-phenyl)-3-{6-[4-(4-methyl-piperazin-1-yl)-phenyl-amino]-pyrimidin-4-yl}-urea]: the results for the inhibition at 10 µM at Tek and on KDR were 12 to 100% and 67 to 100%, respectively.

Take `COc1ccc(Cl)c(NC(=O)Nc2cc(Nc3ccc(N4CCN(C)CC4)cc3)ncn2)c1Cl` [Example 36, 1-(2,6-Dichloro-3-methoxy-phenyl)-3-{6-[4-(4-methyl-piperazin-1-yl)-phenyl-amino]-pyrimidin-4-yl}-urea]: the values for the inhibition at 10 µM on Tek and at KDR were 12 to 100% and 67 to 100%, respectively.

Take `COc1cc(NC(=O)Nc2cc(Nc3ccc(N4CCN(C)CC4)cc3)ncn2)c(Cl)c(OC)c1` [Example 40, 1-(2-Chloro-3,5-dimethoxy-phenyl)-3-{6-[4-(4-methyl-Piperazin-1-yl)-phenyl-amino]-pyrimidin-4-yl}-urea]: the inhibition at 10 µM on Tek lay within 12 to 100%; at KDR it was 67 to 100%.

As to `COc1cc(NC(=O)N(C)c2cc(Nc3ccc(N4CCN(C)CC4)cc3)ncn2)cc(OC)c1` [Example 47, 3-(3,5-Dimethoxy-phenyl)-1-methyl-1-{6-[4-(4-methyl-piperazin-1-yl)-phenylamino]-pyrimidin-4-yl}-urea], the inhibition at 10 µM at Tek was in the range of 12 to 100%; on KDR, 67 to 100%.

Consider `COc1cc(NC(=O)N(C)c2cc(Nc3ccc(N4CCN(C)CC4)cc3)ncn2)c(Cl)c(OC)c1` [Example 50, 3-(2-Chloro-3,5-dimethoxy-phenyl)-1-methyl-1-{6-[4-(4-methyl-piperazin-1-yl)-phenylamino]-pyrimidin-4-yl}-urea], for which the figures for the inhibition at 10 µM on Tek and at KDR were 12 to 100% and 67 to 100%, respectively.

Turning to `CCN(C(=O)Nc1cc(OC)cc(OC)c1Cl)c1cc(Nc2ccc(N3CCN(C)CC3)cc2)ncn1` [Example 55, 3-(2-Chloro-3,5-dimethoxy-phenyl)-1-ethyl-1-{6-[4-(4-methyl-piperazin-1-yl)-phenylamino]-pyrimidin-4-yl}-urea], the inhibition at 10 µM was in the range of 12 to 100% on Tek and 67 to 100% at KDR.

Turning to `COc1cc(OC)c(Cl)c(NC(=O)N(C)c2cc(Nc3cccc(CN(C)C)c3)ncn2)c1Cl` [Example 144, 3-(2,6-Dichloro-3,5-dimethoxy-phenyl)-1-[6-(3-dimethylaminomethyl-phenylamino)-pyrimidin-4-yl]-1-methyl-urea], the inhibition at 10 µM on Tek is 12 to 100%; at KDR, 67 to 100%.

For the molecule `COc1cc(OC)c(Cl)c(NC(=O)N(C)c2cc(Nc3ccc(CCCN(C)C)cc3)ncn2)c1Cl` [Example 147, 3-(2,6-Dichloro-3,5-dimethoxy-phenyl)-1-{6-[4-(3-dimethylamino-propyl)-phenylamino]-pyrimidin-4-yl}-1-methyl-urea], the inhibition at 10 µM was 12 to 100% at Tek and 67 to 100% at KDR.

For the molecule `COc1cc(OC)c(Cl)c(NC(=O)N(C)c2cc(Nc3ccc(OCCN4CCCC4)cc3)ncn2)c1Cl` [Example 148, 3-(2,6-Dichloro-3,5-dimethoxy-phenyl)-1-methyl-1-{6-[4-(2-pyrrolidin-1-yl-ethoxy)-phenylamino]-pyrimidin-4-yl}-urea], the inhibition at 10 µM fell in the range of 12 to 100% on Tek and 67 to 100% on KDR.
